Patent US4983602A, “3'-hydroxybenzoxazinorifamycin derivative, process for preparing the same and antibacterial agent containing the same” (Kanegafuchi Kagaku Kogyo Kabushiki Kaisha, priority 1988, dated 1991)
≈ marks a conversion by molar mass, not a printed value.

Key:
[1] = tested on: Mycobacterium tuberculosis H37 Rv; test: Survival of mice infected with tuberculosis, groups of 10 (Tables 4 and 5); details: oral, 200 μg/mouse; for dead mice: fortieth day
[2] = tested on: Bacillus subtilis IFO 3134; test: Minimal inhibitory concentration, standard method of Japan Society of Chemotherapy; format: cell-based; details: IFO3134
[3] = tested on: Mycobacterium smegmatis ATCC 607; test: as above; format: cell-based; details: Mycolicibacterium smegmatis, ATCC607
[4] = tested on: Staphylococcus aureus IFO 12732; test: as above; format: cell-based; details: IFO12732
[5] = tested on: Klebsiella pneumoniae IFO 3512; test: as above; format: cell-based; details: IFO3512
[6] = tested on: Mycobacterium tuberculosis H37 Rv; test: Minimal inhibitory concentration against a tubercle bacillus; details: Kirchner liquid medium containing 10% bovine serum, 37° C., 4 weeks
[7] = tested on: Micrococcus luteus IFO 12708; test: Minimal inhibitory concentration, standard method of Japan Society of Chemotherapy; format: cell-based; details: IFO12708
[8] = tested on: Escherichia coli IFO 12734; test: as above; format: cell-based; details: IFO12734
[9] = tested on: Mycobacterium tuberculosis H37 Rv; test: Therapeutic effect on mice infected with tuberculosis, groups of 20 (FIG. 1); details: oral, 200 μg/mouse once a day, six days a week

| SMILES | Survival rate ([1]; Table 5, control 0%) | dead mice ([1]; Table 5 test) | MIC [2] | MIC [3] | MIC [4] | MIC [5] | Minimal inhibitory concentration [6] | MIC [7] | MIC [8] | therapeutic effect as compared with rifampicin (and derivative A) [9] | Survival rate ([1]; Table 4, control 30%) | dead mice ([1]; Table 4 test) |
| --- | --- | --- | --- | --- | --- | --- | --- | --- | --- | --- | --- | --- |
| CCCCN1CCN(c2cc(O)c3nc4c5c6c7c(C)c(O)c5c(=O)c(c-4oc3c2)NC(=O)C(C)=CC=CC(C)C(O)C(C)C(O)C(C)C(OC(C)=O)C(C)C(OC)C=COC(C)(O7)C6=O)CC1 (stereo not drawn) [Derivative No. 1] | 100% | there was not observed any dead mouse | ≤ 0.02 µg/mL | 5 µg/mL (≈ 5.31 µM) | ≤ 0.02 µg/mL | > 10 µg/mL | 0.035 µg/mL (≈ 0.0372 µM) | ≤ 0.02 µg/mL | > 10 µg/mL |  |  |  |
| COC1C=COC2(C)Oc3c(C)c(O)c4c(=O)c(c5oc6cc(N7CCN(CC(C)C)CC7)cc(O)c6nc-5c4c3C2=O)NC(=O)C(C)=CC=CC(C)C(O)C(C)C(O)C(C)C(OC(C)=O)C1C (stereo not drawn) [Derivative No. 2] |  |  | 0.04 µg/mL (≈ 0.0425 µM) | 2.5 µg/mL (≈ 2.66 µM) | ≤ 0.02 µg/mL | > 10 µg/mL | 0.017 µg/mL (≈ 0.0181 µM) | ≤ 0.02 µg/mL | > 10 µg/mL | excellent therapeutic effect as compared with rifampicin | 100% | there was not observed any dead mouse |
| COC1C=COC2(C)Oc3c(C)c(O)c4c(=O)c(c5oc6cc(N7CCN(CC8CC8)CC7)cc(O)c6nc-5c4c3C2=O)NC(=O)C(C)=CC=CC(C)C(O)C(C)C(O)C(C)C(OC(C)=O)C1C (stereo not drawn) [Derivative No. 3] |  |  | ≤ 0.02 µg/mL | 2.5 µg/mL (≈ 2.66 µM) | ≤ 0.02 µg/mL | > 10 µg/mL | 0.017 µg/mL (≈ 0.0181 µM) | ≤ 0.02 µg/mL | > 10 µg/mL |  | 100% | there was not observed any dead mouse |
| CCC(C)N1CCN(c2cc(O)c3nc4c5c6c7c(C)c(O)c5c(=O)c(c-4oc3c2)NC(=O)C(C)=CC=CC(C)C(O)C(C)C(O)C(C)C(OC(C)=O)C(C)C(OC)C=COC(C)(O7)C6=O)CC1 (stereo not drawn) [Derivative No. 4] | 100% | there was not observed any dead mouse | ≤ 0.02 µg/mL | 1.25 µg/mL (≈ 1.33 µM) | ≤ 0.02 µg/mL | > 10 µg/mL | 0.017 µg/mL (≈ 0.0181 µM) | ≤ 0.02 µg/mL | > 10 µg/mL |  |  |  |
| COC1C=COC2(C)Oc3c(C)c(O)c4c(=O)c(c5oc6cc(N7CCN(CCC(C)C)CC7)cc(O)c6nc-5c4c3C2=O)NC(=O)C(C)=CC=CC(C)C(O)C(C)C(O)C(C)C(OC(C)=O)C1C (stereo not drawn) [Derivative No. 5] |  |  | 0.16 µg/mL (≈ 0.168 µM) | 5 µg/mL (≈ 5.23 µM) | ≤ 0.02 µg/mL | > 10 µg/mL | 0.07 µg/mL (≈ 0.0733 µM) | ≤ 0.02 µg/mL | > 10 µg/mL |  | 100% | there was not observed any dead mouse |
| COC1C=COC2(C)Oc3c(C)c(O)c4c(=O)c(c5oc6cc(N7CCN(C(C)(C)C)CC7)cc(O)c6nc-5c4c3C2=O)NC(=O)C(C)=CC=CC(C)C(O)C(C)C(O)C(C)C(OC(C)=O)C1C (stereo not drawn) [Derivative No. 6] | 100% | there was not observed any dead mouse | ≤ 0.02 µg/mL | 1.25 µg/mL (≈ 1.33 µM) | ≤ 0.02 µg/mL | > 10 µg/mL | 0.008 µg/mL (≈ 0.0085 µM) | ≤ 0.02 µg/mL | > 10 µg/mL |  |  |  |
| C=CCN1CCN(c2cc(O)c3nc4c5c6c7c(C)c(O)c5c(=O)c(c-4oc3c2)NC(=O)C(C)=CC=CC(C)C(O)C(C)C(O)C(C)C(OC(C)=O)C(C)C(OC)C=COC(C)(O7)C6=O)CC1 (stereo not drawn) [Derivative No. 7] |  |  | 0.04 µg/mL (≈ 0.0432 µM) | 2.5 µg/mL (≈ 2.7 µM) | ≤ 0.02 µg/mL | > 10 µg/mL | 0.035 µg/mL (≈ 0.0378 µM) | ≤ 0.02 µg/mL | > 10 µg/mL |  | 100% | there was not observed any dead mouse |
| C=CCCN1CCN(c2cc(O)c3nc4c5c6c7c(C)c(O)c5c(=O)c(c-4oc3c2)NC(=O)C(C)=CC=CC(C)C(O)C(C)C(O)C(C)C(OC(C)=O)C(C)C(OC)C=COC(C)(O7)C6=O)CC1 (stereo not drawn) [Derivative No. 8] | 100% | there was not observed any dead mouse | ≤ 0.02 µg/mL | 2.5 µg/mL (≈ 2.66 µM) | ≤ 0.02 µg/mL | > 10 µg/mL | 0.017 µg/mL (≈ 0.0181 µM) | ≤ 0.02 µg/mL | > 10 µg/mL |  |  |  |
| COC1C=COC2(C)Oc3c(C)c(O)c4c(=O)c(c5oc6cc(N7CCN(CC=C(C)C)CC7)cc(O)c6nc-5c4c3C2=O)NC(=O)C(C)=CC=CC(C)C(O)C(C)C(O)C(C)C(OC(C)=O)C1C (stereo not drawn) [Derivative No. 9] |  |  | 0.08 µg/mL (≈ 0.0839 µM) | 2.5 µg/mL (≈ 2.62 µM) | ≤ 0.02 µg/mL | > 10 µg/mL | 0.035 µg/mL (≈ 0.0367 µM) | ≤ 0.02 µg/mL | > 10 µg/mL |  | 100% | there was not observed any dead mouse |
| COC1C=COC2(C)Oc3c(C)c(O)c4c(=O)c(c5oc6cc(N7CCN8CCCC8C7)cc(O)c6nc-5c4c3C2=O)NC(=O)C(C)=CC=CC(C)C(O)C(C)C(O)C(C)C(OC(C)=O)C1C (stereo not drawn) [Derivative No. 10] |  |  | ≤ 0.02 µg/mL | 2.5 µg/mL (≈ 2.7 µM) | ≤ 0.02 µg/mL | 10 µg/mL (≈ 10.8 µM) | 0.15 µg/mL (≈ 0.162 µM) | ≤ 0.02 µg/mL | 10 µg/mL (≈ 10.8 µM) |  | 100% | there was not observed any dead mouse |
| CO[C@H]1/C=C/O[C@@]2(C)Oc3c(C)c(O)c4c(O)c(c(/C=N/N5CCN(C)CC5)c(O)c4c3C2=O)NC(=O)/C(C)=C\C=C\[C@H](C)[C@H](O)[C@@H](C)[C@@H](O)[C@@H](C)[C@H](OC(C)=O)[C@@H]1C [Rifampicin, reference compound] | 40% |  |  |  |  |  | 0.6 µg/mL (≈ 0.729 µM) |  |  |  | 80% |  |
| COC1C=COC2(C)Oc3c(C)c(O)c4c(=O)c(c5oc6cc(N7CCCCC7)ccc6nc-5c4c3C2=O)NC(=O)C(C)=CC=CC(C)C(O)C(C)C(O)C(C)C(OC(C)=O)C1C (stereo not drawn) [derivative B] |  |  |  |  |  |  |  |  |  | inferior to rifampicin |  |  |
| CCc1c(N2CCCC2)ccc2nc3c4c5c6c(C)c(O)c4c(=O)c(c-3oc12)NC(=O)C(C)=CC=CC(C)C(O)C(C)C(O)C(C)C(OC(C)=O)C(C)C(OC)C=COC(C)(O6)C5=O (stereo not drawn) [derivative C] |  |  |  |  |  |  |  |  |  | inferior to rifampicin |  |  |
